Key:
[1] = system: normal human prostate epithelial cells (EPIT); experiment: Dose-response growth study in normal human prostate epithelial cells (EPIT); type: cell-based; details: increasing quantities of EGCG, cells in culture
[2] = system: PNT1a; experiment: Dose-response growth study in SV40-immortalized human prostate epithelial cells (PNT1a), compared with PC-3; type: cell-based; details: PNT1a versus PC-3 cells
[3] = in vivo; cited from earlier work
[4] = system: prostate cancer in rats TRAMP; details: rat, in vivo
Excerpt: To show the validity of this hypothesis we worked on a preclinical animal model of […]. One of the more important preclinical models for the study of prostate tumor in vivo consists of transgenic rats TRAMP. These animals, when recombinant homozygotes develop prostate cancer with 100% probability in the adult stage. Progress of the illness recapitulates the essential phases of onset and progress of the human ailment. Indeed, it begins with lesions of the Prostate Intraepithelial Neoplasia (PIN) type to then give full blown neoplastic histological lesions, evolve subsequently towards androgen-resistant and aggressive phenotypes, then originating extraprostate and metastatic lesions in the terminal phase. […] Reduction of the onset of this neoplasia in treated animals was 80% (only 20 cases of neoplasia in 100 against 100 out of 100 in untreated animals).

O=C(O[C@@H]1Cc2c(O)cc(O)cc2O[C@@H]1c1cc(O)c(O)c(O)c1)c1cc(O)c(O)c(O)c1 [EGCG, (−)-epigallocatechina-3-gallato]
growth of EPIT [1]: not modified significantly
IC50 of EGCG in PNT1a relative to PC-3 [2]: very lower than in PC-3
half-life in plasma [3]: over 5 hours

catechins
adverse or collateral effect in vitro and in the animal model [4]: did not witness any adverse or collateral effect

— patent US8044095B2, “Mixture of catechins or rather polyphenols extracted from chinese green tea or other vegetables for the prevention of prostate cancer and for the treatment of prostate hypertrophy (BPH)” (Genprofiler s.r.l., priority 2004, dated 2011)
